Measurements from PubChem BioAssay AID194 (DTP/NCI, 2004).
Where “and” joins values, the source holds several entries; their conditions need not be identical. Identical values can stand only once. Records with an inconclusive call do not appear.

Tested on: BDF1 mice, B16 melanoma s.c., survival/tumor T/C
Test: NCI In Vivo Anticancer Drug Screen. Data for tumor model B16 Melanoma (subcutaneous) in B6D2F1 (BDF1) mice
Method: The antitumor activity of compounds was measured in mice bearing transplantable tumors. Survival or tumor size were measured and the results are expressed as the measurement made in the treated group (T) divided by the measurement made in the vehicle treated control group (C). The tumor model used in this assay is B16 Melanoma (subcutaneous) in B6D2F1 (BDF1) mice

O=NN(CCF)C(=O)NC1CCCCC1
T/C (endpoint: median survival time, dose: 0.63 mg/kg/injection, schedule: Q01HX012 (ip), vehicle: Klucel (hydroxypropylcellulose) (HPC), higher = longer survival): 123 % of control
T/C (endpoint: median survival time, dose: 1.25 mg/kg/injection, schedule: Q01HX012 (ip), vehicle: Klucel (hydroxypropylcellulose) (HPC), higher = longer survival): 107 % of control
T/C (endpoint: median survival time, dose: 1.25 mg/kg/injection, schedule: Q02HX006 (ip), vehicle: Klucel (hydroxypropylcellulose) (HPC), higher = longer survival): 96 % of control
T/C (endpoint: median survival time, dose: 1.88 mg/kg/injection, schedule: Q03HX004 (ip), vehicle: Klucel (hydroxypropylcellulose) (HPC), higher = longer survival): 96 % of control
T/C (endpoint: median survival time, dose: 2.5 mg/kg/injection, schedule: Q02HX006 (ip), vehicle: Klucel (hydroxypropylcellulose) (HPC), higher = longer survival): 101 % of control
T/C (endpoint: median survival time, dose: 3.11 mg/kg/injection, schedule: Q01DX007 (ip), vehicle: Klucel (hydroxypropylcellulose) (HPC), higher = longer survival): 98 % of control
T/C (endpoint: median survival time, dose: 5.0 mg/kg/injection, schedule: Q01HX012 (ip), vehicle: Klucel (hydroxypropylcellulose) (HPC), higher = longer survival): 242 % of control
T/C (endpoint: median survival time, dose: 5.0 mg/kg/injection, schedule: Q02HX006 (ip), vehicle: Klucel (hydroxypropylcellulose) (HPC), higher = longer survival): 115 % of control
T/C (endpoint: median survival time, dose: 5.18 mg/kg/injection, schedule: Q01DX007 (ip), vehicle: Klucel (hydroxypropylcellulose) (HPC), higher = longer survival): 102 % of control
T/C (endpoint: median survival time, dose: 7.5 mg/kg/injection, schedule: Q01DX001 (ip), vehicle: Klucel (hydroxypropylcellulose) (HPC), higher = longer survival): 107 % of control
T/C (endpoint: median survival time, dose: 7.5 mg/kg/injection, schedule: Q03HX004 (ip), vehicle: Klucel (hydroxypropylcellulose) (HPC), higher = longer survival): 115 % of control
T/C (endpoint: median survival time, dose: 10.0 mg/kg/injection, schedule: Q02HX006 (ip), vehicle: Klucel (hydroxypropylcellulose) (HPC), higher = longer survival): 261 % of control
T/C (endpoint: median survival time, dose: 14.4 mg/kg/injection, schedule: Q01DX007 (ip), vehicle: Klucel (hydroxypropylcellulose) (HPC), higher = longer survival): 120 % of control
T/C (endpoint: median survival time, dose: 15.0 mg/kg/injection, schedule: Q01DX001 (ip), vehicle: Klucel (hydroxypropylcellulose) (HPC), higher = longer survival): 119 % of control
T/C (endpoint: median survival time, dose: 15.0 mg/kg/injection, schedule: Q03HX004 (ip), vehicle: Klucel (hydroxypropylcellulose) (HPC), higher = longer survival): 157 % of control
T/C (endpoint: median survival time, dose: 15.8 mg/kg/injection, schedule: Q01DX007 (ip), vehicle: Klucel (hydroxypropylcellulose) (HPC), higher = longer survival): 115 % of control
T/C (endpoint: median survival time, dose: 20.0 mg/kg/injection, schedule: Q02HX006 (ip), vehicle: Klucel (hydroxypropylcellulose) (HPC), higher = longer survival): 88 % of control
T/C (endpoint: median survival time, dose: 23.7 mg/kg/injection, schedule: Q01DX007 (ip), vehicle: Klucel (hydroxypropylcellulose) (HPC), higher = longer survival): 68 % of control
T/C (endpoint: median survival time, dose: 30.0 mg/kg/injection, schedule: Q01DX001 (ip), vehicle: Klucel (hydroxypropylcellulose) (HPC), higher = longer survival): 164 % of control
T/C (endpoint: median survival time, dose: 30.0 mg/kg/injection, schedule: Q03HX004 (ip), vehicle: Klucel (hydroxypropylcellulose) (HPC), higher = longer survival): 326 % of control
T/C (endpoint: median survival time, dose: 35.6 mg/kg/injection, schedule: Q01DX007 (ip), vehicle: Klucel (hydroxypropylcellulose) (HPC), higher = longer survival): 69 % of control
T/C (endpoint: median survival time, dose: 53.3 mg/kg/injection, schedule: Q01DX007 (ip), vehicle: Klucel (hydroxypropylcellulose) (HPC), higher = longer survival): 60 % of control
T/C (endpoint: median survival time, dose: 60.0 mg/kg/injection, schedule: Q01DX001 (ip), vehicle: Klucel (hydroxypropylcellulose) (HPC), higher = longer survival): 238 % of control
T/C (endpoint: median survival time, dose: 80.0 mg/kg/injection, schedule: Q01DX007 (ip), vehicle: Klucel (hydroxypropylcellulose) (HPC), higher = longer survival): 55 % of control
T/C (endpoint: median tumor weight (est.), dose: 1.25 mg/kg/injection, schedule: Q01HX012 (ip), vehicle: Klucel (hydroxypropylcellulose) (HPC), higher = larger tumour): 59 % of control
T/C (endpoint: median tumor weight (est.), dose: 1.25 mg/kg/injection, schedule: Q02HX006 (ip), vehicle: Klucel (hydroxypropylcellulose) (HPC), higher = larger tumour): 114 % of control
T/C (endpoint: median tumor weight (est.), dose: 1.88 mg/kg/injection, schedule: Q03HX004 (ip), vehicle: Klucel (hydroxypropylcellulose) (HPC), higher = larger tumour): 61 % of control
T/C (endpoint: median tumor weight (est.), dose: 2.5 mg/kg/injection, schedule: Q01HX012 (ip), vehicle: Klucel (hydroxypropylcellulose) (HPC), higher = larger tumour): 10 % of control
T/C (endpoint: median tumor weight (est.), dose: 2.5 mg/kg/injection, schedule: Q02HX006 (ip), vehicle: Klucel (hydroxypropylcellulose) (HPC), higher = larger tumour): 67 % of control
T/C (endpoint: median tumor weight (est.), dose: 3.75 mg/kg/injection, schedule: Q03HX004 (ip), vehicle: Klucel (hydroxypropylcellulose) (HPC), higher = larger tumour): 83 % of control
T/C (endpoint: median tumor weight (est.), dose: 5.0 mg/kg/injection, schedule: Q02HX006 (ip), vehicle: Klucel (hydroxypropylcellulose) (HPC), higher = larger tumour): 26 % of control
T/C (endpoint: median tumor weight (est.), dose: 7.5 mg/kg/injection, schedule: Q01DX001 (ip), vehicle: Klucel (hydroxypropylcellulose) (HPC), higher = larger tumour): 110 % of control
T/C (endpoint: median tumor weight (est.), dose: 7.5 mg/kg/injection, schedule: Q03HX004 (ip), vehicle: Klucel (hydroxypropylcellulose) (HPC), higher = larger tumour): 70 % of control
T/C (endpoint: median tumor weight (est.), dose: 15.0 mg/kg/injection, schedule: Q01DX001 (ip), vehicle: Klucel (hydroxypropylcellulose) (HPC), higher = larger tumour): 70 % of control

Cc1c(N)nc(C(CC(N)=O)NCC(N)C(N)=O)nc1C(=O)NC(C(=O)NC(C)C(O)C(C)C(=O)NC(C(=O)NCCc1nc(-c2nc(C(=O)NCCCNC(C)c3ccccc3)cs2)cs1)C(C)O)C(OC1OC(CO)C(O)C(O)C1OC1OC(CO)C(O)C(OC(N)=O)C1O)c1cnc[nH]1 (centres undefined)
T/C (endpoint: median survival time, dose: 0.13 mg/kg/injection, schedule: Q01DX010 (ip), vehicle: water, higher = longer survival): 97 % of control
T/C (endpoint: median survival time, dose: 0.25 mg/kg/injection, schedule: Q01DX009 (ip), vehicle: water, higher = longer survival): 105 % of control and 120 % of control
T/C (endpoint: median survival time, dose: 0.25 mg/kg/injection, schedule: Q01DX010 (ip), vehicle: water, higher = longer survival): 97 % of control
T/C (endpoint: median survival time, dose: 0.5 mg/kg/injection, schedule: Q01DX009 (ip), vehicle: water, higher = longer survival): 100 % of control
T/C (endpoint: median survival time, dose: 0.5 mg/kg/injection, schedule: Q01DX010 (ip), vehicle: water, higher = longer survival): 124 % of control
T/C (endpoint: median survival time, dose: 1.0 mg/kg/injection, schedule: Q01DX009 (ip), vehicle: water, higher = longer survival): 184 % of control
T/C (endpoint: median survival time, dose: 1.0 mg/kg/injection, schedule: Q01DX010 (ip), vehicle: water, higher = longer survival): 112 % of control
T/C (endpoint: median survival time, dose: 2.0 mg/kg/injection, schedule: Q01DX010 (ip), vehicle: water, higher = longer survival): 112 % of control
T/C (endpoint: median survival time, dose: 4.0 mg/kg/injection, schedule: Q01DX010 (ip), vehicle: water, higher = longer survival): 98 % of control
T/C (endpoint: median survival time, dose: 8.0 mg/kg/injection, schedule: Q01DX009 (ip), vehicle: water, higher = longer survival): 106 % of control
